Experimental data taken from patent US20070059242A1, “METHODS TO IDENTIFY THERAPEUTIC AGENTS” (priority 2005, published 2007).
Like-named read-outs stand apart in the source and are kept apart here.

Tests used:
[1] = system: MH-S murine alveolar macrophage line; assay: LDH release cytotoxicity assay, MH-S; format: cell-based; settings: 18 h
Description: Cytotoxicity assays. WI-L2 human B-lymphocyte line, HAAE-1 human abdominal aortic endothelial line, MH-S murine alveolar macrophage line, and J774A.1 murine tissue macrophage line were obtained from the ATCC. Human aortic endothelial cells (HAEC) and human vascular smooth muscle cells (VSMS) were obtained from Cambrex Bio Science. Jurkat E6-1T-lymphocytes were kindly provided by Dr. J. Kaye (The Scripps Research Institute). Cells were cultured in ATCC-recommended media with 10% fetal calf serum. Cells were incubated in a controlled atmosphere at 37° C., with 5 or 7% CO2. For lactate dehydrogenase (LDH) release assays, adherent cells were harvested either by addition of 0.05% trypsin/EDTA or by scraping. The cells obtained were seeded onto 96-well microtiter plates (25,000 cells/well) and allowed to recover for 24-48 h. […] Cytotoxicity was then determined by measuring lactate dehydrogenase (LDH) release from cells in culture. […] 100% Cytotoxicity was defined as the maximum amount of LDH released by dead cells as shown by trypan blue exclusion, or the highest amount of LDH detected upon lysis of cells by 0.9% Triton X-100. The IC50 values were determined by comparison of the raw duplicate data for concentration versus cytotoxicity (%) to non-linear regression analysis (Hill plot) using Graphpad v3.0 software for Macintosh.

[2] = system: neuronal cell lines; assay: Cytotoxicity towards neuronal cell lines (similar procedures); format: cell-based
[3] = system: J774.1 macrophages; assay: Lipid-loading assay (foam cell formation); format: cell-based, murine; settings: J774.1, 72 h, LDL 100 μg/mL with or without compound 20 μM
Description: Lipid-loading assay (foam cell formation). J774.1 macrophages were incubated in ATCC-recommended media containing 10% fetal bovine serum under a controlled atmosphere of 5 or 7% CO2 at 37° C., in 8-well chamber slides. […] At termination, cells were washed twice with PBS (pH 7.4). The cells were then fixed with 6% (v/v) paraformaldehyde in PBS for 30 minutes, rinsed with propylene glycol for 2 minutes and lipids were stained with 5 mg/ml Oil Red 0 for 8 minutes. The cells were counterstained with Harris' hematoxylin for 45 seconds, and background staining was removed with 6% paraformaldehyde followed by washing once in PBS and once in tap water. Cover slips were mounted onto the glass slides using glycerol and the slide preparations were examined by light microscopy. The number of lipid-laden cells was scored out of a total of at least 100 cells counted in a single field in each slide, and expressed as a percentage of total cells. Photographs were taken at 100× magnification.

[4] = system: J774A.1 macrophages; assay: Uptake and localization in macrophages by fluorescence microscopy; format: cell-based, murine; settings: 50 μM dansyl derivative, 5 min to 1 h; not complexed with LDL
Description: J774A.1 cells were plated in 8-well chambered slides (Nalge Nunc International). Cells were gently washed twice with PBS, pH 7.4 before 5 min or 1 h exposure to 50 μM dansyl derivative of cholesterol ozonation product 5d or 5e, dansyl cholesterol derivative 9c or 9d, or dansyl hydrazine diluted in media without FCS (0.05% v/v final DMSO concentration). [drawing 28] Media was removed by aspiration and cells were fixed immediately in 95% ice cold methanol for 5 min. Cells were mounted in glycerol containing Antifade reagent (Molecular Probes). Fluorescence images were documented using DeltaVision Deconvolution microscope (API, Issaquah WA) equipped with a Photometrics CH350L liquid cooled CCD camera attached to an Olympus IX—70 inverted microscope. […] All images were deconvolved using constrained iterative algorithms (10 iterations) of DeltaVision software (softWoRx, v2.5). The deconvolved images were subsequently processed using softWoRx, v2.5.
In some experiments, murine macrophage RAW 264.7 (ECACC 91062702) cells were grown in RPMI (Gibco) with 10% FCS at 37° C. with 5% CO2. For fluorescence imaging, cells were incubated on cover slips in 6-well chambered plates (Costar) for 12 h, gently washed 3 times in PBS at pH 7.4, and incubated with 50 μM dansyl derivative of cholesterol ozonation product 5d or 5e, dansyl cholesterol derivative 9c or 9d, in RPMI with 10% FCS for 5, 15, 30, and 60 min. A solution of the dansyl derivative was then added in DMSO [final DMSO, 0.05% (v/v)]. Media was removed by aspiration, and cells were washed twice with PBS, followed by fixing in paraformaldehyde (3.7% in PBS) for 10 min. Cover slips were mounted in MOWIOL 4-88 (Calbiochem). Microscopy was performed using an inverted Zeiss Axioscope 2 Plus fluorescence microscope, and images were obtained with a Zeiss Axiocam digital camera using Axiovision software (version 3.1). The data were collected using a 63× oil immersion lens and DAPI filter (excitation 360/emission 460), and images were processed with Axiovision software and Adobe software (Photoshop 6.0).

[5] = system: VCAM-1; assay: Endothelial adhesion molecule expression ELISA, VCAM-1; format: cell-based, human; settings: for integrin (VCAM-1) expression: HAAE-1, not complexed with LDL
Description: Endothelial cell surface adhesion molecule expression was measured by ELISA, using anti-human CD54 (ICAM-1), CD106 (VCAM-1) and CD62E (E-Selectin) antibodies (Leinco Technologies, Inc., St. Louis, Mo.). The ELISA method was modified from previously described procedures.
Cells were then incubated with antibodies to VCAM-1, E-selectin, or ICAM-1 diluted 1:400 in PBS containing 5% FCS at 37° C. for 30 min. Wells were washed two times with PBS, then incubated with horseradish peroxidase (HRP)-conjugated goat anti-mouse IgG (Southern Biotechnology Associates, Birmingham, Ala., USA) in PBS/5% FCS at 37° C. for 30 min. The wells were washed four times with PBS, then incubated with H2O2/3,3′,5,5′-tetramethyl-benzidine peroxidase substrate (Pierce Chemical, Rockford, Ill., USA) for 30 min in the dark. The reaction was stopped by adding 25 μl of 8 N H2SO4, and the plates read on a microplate reader, blanking on wells stained with only secondary antibody. Each assay was performed in triplicate and the data are reported as the mean±SEM as a percentage of the expression level of the vehicle. To study the effect of cholesterol ozonation product 5a concentration (5-50 μM) on E-selectin expression, the assay was performed in an identical fashion as described above, with each point being the mean±SEM of at least duplicate measurements.

[6] = system: U-937 monocytes on endothelial cell monolayers; assay: Monocyte-endothelial cell-cell adhesion by fluorescence spectroscopy; format: cell-based; settings: alone or in complex with LDL

CC(C)CCC[C@@H](C)[C@H]1CCC2C3C(CC[C@@]21C)[C@@]1(C)CC[C@H](O)C[C@@]1(O)[C@@H]3C=O (stereo partly drawn) [5a, 3β-Hydroxy-5β-hydroxy-B-norcholestane-6β-carboxaldehyde]
IC50 ([1]; Mus musculus, Macrophage): 13.6 ± 1.1 µM | cytotoxic towards neuronal cell lines [2]: cytotoxic | lipid-loading of macrophages / foam cell formation [3]: began lipid-loading | uptake and localization in macrophages [4]: efficiently taken up by macrophages | integrin (VCAM-1) expression [5]: no effects | adhesion of U-937 monocytes to endothelial cell monolayers, above that of LDL alone [6]: no significant increase in equilibrium binding of monocytes to endothelial cells

CC(C)CCC[C@@H](C)[C@H]1CCC2C(CC=O)C([C@@]3(C)CC[C@H](O)CC3=O)CC[C@@]21C (stereo partly drawn) [4a, 3β-Hydroxy-5-oxo-5,6-secocholestan-6-al]
IC50 ([1]; MH-S, LDH release, 0-100 μM, read-out: IC50): 11.2 ± 1.2 µM | cytotoxic towards neuronal cell lines [2]: cytotoxic | lipid-loading of macrophages / foam cell formation [3]: began lipid-loading | uptake and localization in macrophages [4]: efficiently taken up by macrophages | VCAM-1 levels ([5]; HAAE-1, 25 μM in the presence of LDL, or lipoprotein alone): remain unchanged | integrin (VCAM-1) expression [5]: no effects | adhesion of U-937 monocytes to endothelial cell monolayers, above that of LDL alone [6]: no significant increase in equilibrium binding of monocytes to endothelial cells
